The source of these data is patent publication US9637469B2, “Pyridine derivative” (Teijin Pharma Limited, priority 2012, dated 2017).

One experiment relates to Cebus apella. In words: Test for drug efficacy in Cebus apella (uric acid excretion rate). In kind it is in vivo. To be noted: 3 mg/kg to 30 mg/kg in 0.5% methylcellulose into stomach via the nasal cavity, up to 24 hours. As to the method:
A test compound (3 mg/kg to 30 mg/kg) prepared by suspending in a 0.5% methylcellulose solution was administered to Cebus apella into stomach via the nasal cavity using a disposable catheter and a syringe barrel. Blood samples were taken before administration and 30 minutes, 1 hour, 2 hours, 4 hours, 8 hours, 12 hours, and 24 hours after administration; and urine samples were collected for the time intervals of immediately to 4 hours after administration, from 4 hours to 8 hours after administration, from 8 hours to 16 hours after administration, and from 16 hours to 24 hours after administration. Concentrations of uric acid and creatinine in the blood and urine samples collected were measured by an automatic analyzer (JEOL Ltd.). Uric acid and creatine were measured using L-type Wako UA.F (Wako Pure Chemicals Industries, Ltd.) and L-type Creatine F (Wako Pure Chemicals Industries, Ltd.) respectively. Uric acid clearance was calculated from the uric acid concentrations in blood and urine and, similarly, creatinine clearance was calculated from the creatinine concentrations.

For another experiment, the target named is T1, human URAT1 (Homo sapiens, UniProt Q96S37).
T1 construct: Full-length cDNA of human URAT1 (hURAT1)
T1 sequence (Q96S37 1-553): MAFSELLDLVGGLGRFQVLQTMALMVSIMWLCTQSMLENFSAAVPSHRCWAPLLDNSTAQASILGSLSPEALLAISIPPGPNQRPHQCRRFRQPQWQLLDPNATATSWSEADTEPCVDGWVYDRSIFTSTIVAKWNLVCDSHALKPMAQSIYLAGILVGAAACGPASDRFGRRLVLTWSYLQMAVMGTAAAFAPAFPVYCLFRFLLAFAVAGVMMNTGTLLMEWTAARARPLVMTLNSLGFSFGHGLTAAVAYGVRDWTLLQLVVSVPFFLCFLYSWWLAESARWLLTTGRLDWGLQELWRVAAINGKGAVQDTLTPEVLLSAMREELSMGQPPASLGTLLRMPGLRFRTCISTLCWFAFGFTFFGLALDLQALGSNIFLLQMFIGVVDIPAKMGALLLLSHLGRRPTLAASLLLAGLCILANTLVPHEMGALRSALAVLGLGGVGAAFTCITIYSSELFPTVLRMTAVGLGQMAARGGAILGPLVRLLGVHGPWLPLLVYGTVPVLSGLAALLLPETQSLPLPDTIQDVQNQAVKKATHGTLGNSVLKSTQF
In words: Test for inhibition of uric acid transport using human URAT1-expressing cells.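 Note: three stars up to 0.2 µM two stars 0.2-2 µM one star 2-20 µM.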 In kind it is cell-based. To be noted: HEK 293 cells expressing human URAT1; 14C-labeled uric acid 25 μM; uptake 37° C. for 5 min. The method in brief:
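IC50 values reflect inhibition of ¹⁴C-uric acid uptake (25 μM final, 5 min, 37 °C) by compound. Cells were HEK293 stably expressing full-length human URAT1, preincubated in Na-gluconate-substituted HBSS. Radioactivity in lysates was expressed relative to DMSO control as 100%.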

As for `O=C(O)c1cnc(-c2cncc(Cl)c2)n1Cc1cc(Cl)ccc1Cl` [Compound A169, 2-(5-chloropyridin-3-yl)-1-(2,5-dichlorobenzyl)-1H-imidazole-5-carboxylic acid], the “uricosuric effect (uric acid excretion rate)” value (“uricosuric effect” below) in the experiment with Cebus apella is on record as “excellent uricosuric effect was confirmed”. The “Inhibitory Activity (IC50 of uric acid transport inhibition)” value (shortened to “Inhibitory Activity”) at human URAT1 is listed as “* * *”.

For the compound `Cc1nc(-c2cncc(Cl)c2)n(Cc2cc(Cl)ccc2Cl)c1C(=O)O` [Compound A135, 2-(5-chloropyridin-3-yl)-1-(2,5-dichlorobenzyl)-4-methyl-1H-imidazole-5-carboxylic acid], the “uricosuric effect” value with Cebus apella is reported as “excellent uricosuric effect was confirmed”. In addition, the “Inhibitory Activity” value on human URAT1 is “* * *”.

Consider `Cc1nc(-c2cccnc2)n(Cc2cccc3ccccc23)c1C(=O)O` [Compound A2, 4-methyl-1-(naphthalen-1-ylmethyl)-2-(pyridin-3-yl)-1H-imidazole-5-carboxylic acid], for which the “uricosuric effect” value with Cebus apella is given as “excellent uricosuric effect was confirmed”. Further, the “Inhibitory Activity” value on human URAT1 is reported as “* *”.

With `Cc1nc(-c2cncc(C(F)(F)F)c2)n(Cc2cc(Cl)ccc2Cl)c1C(=O)O` [Compound A139, 1-(2,5-dichlorobenzyl)-4-methyl-2-(5-(trifluoromethyl)pyridin-3-yl)-1H-imidazole-5-carboxylic acid], the “uricosuric effect” value in the experiment with Cebus apella is “excellent uricosuric effect was confirmed”. Also, the “Inhibitory Activity” value on human URAT1 was “* * *”.

With `O=C(O)c1c(C(F)(F)F)nc(-c2cncc(Cl)c2)n1Cc1cc(Cl)ccc1Cl` [Compound A137, 2-(5-chloropyridin-3-yl)-1-(2,5-dichlorobenzyl)-4-(trifluoromethyl)-1H-imidazole-5-carboxylic acid], the “uricosuric effect” value in the experiment with Cebus apella was “excellent uricosuric effect was confirmed”. In addition, at human URAT1, the “Inhibitory Activity” value was “* * *”.

For `CC(C)c1nc(-c2cccnc2)n(Cc2cc(Cl)ccc2Cl)c1C(=O)O` [Compound A26, 1-(2,5-dichlorobenzyl)-4-isopropyl-2-(pyridin-3-yl)-1H-imidazole-5-carboxylic acid], the “uricosuric effect” value with Cebus apella was “excellent uricosuric effect was confirmed”. For the same compound, the “Inhibitory Activity” value on human URAT1 is recorded as “* * *”.

For `Cc1nc(-c2cccnc2)n(Cc2cccc3ccsc23)c1C(=O)O` [Compound A81, 1-(benzo[b]thiophen-7-ylmethyl)-4-methyl-2-(pyridin-3-yl)-1H-imidazole-5-carboxylic acid], the “uricosuric effect” value in the experiment on Cebus apella is reported as “excellent uricosuric effect was confirmed”. For the same compound, the “Inhibitory Activity” value at human URAT1 is recorded as “* *”.

Turning to `Cc1nc(-c2cncc(Cl)c2)n(Cc2cccc3ccsc23)c1C(=O)O` [Compound A233, 1-(benzo[b]thiophen-7-ylmethyl)-2-(5-chloropyridin-3-yl)-4-methyl-1H-imidazole-5-carboxylic acid], in the experiment on Cebus apella, the “uricosuric effect” value is “excellent uricosuric effect was confirmed”. On human URAT1, the “Inhibitory Activity” value is “* * *”.

Take `O=C(O)c1c(C2CC2)nc(-c2cncc(Cl)c2)n1Cc1cc(Cl)ccc1Cl` [Compound A147, 2-(5-chloropyridin-3-yl)-4-cyclopropyl-1-(2,5-dichlorobenzyl)-1H-imidazole-5-carboxylic acid]: in the experiment on Cebus apella, the “uricosuric effect” value is listed as “excellent uricosuric effect was confirmed”. Also, at human URAT1, the “Inhibitory Activity” value is recorded as “* * *”.

For the compound `O=C(O)c1ccc(-c2cccnc2)n1Cc1cccc2ccccc12` [Compound B1, 1-(naphthalen-1-ylmethyl)-2-(pyridin-3-yl)-1H-pyrrole-5-carboxylic acid], the “uricosuric effect” value with Cebus apella is listed as “excellent uricosuric effect was confirmed”. Moreover, at human URAT1, the “Inhibitory Activity” value is given as “* * *”.

On to `Cc1nc(-c2cncc(Cl)c2)n(Cc2cccc3ccccc23)c1C(=O)O` [Compound A121, 2-(5-chloropyridin-3-yl)-4-methyl-1-(naphthalen-1-ylmethyl)-1H-imidazole-5-carboxylic acid], for which, in the experiment with Cebus apella, the “uricosuric effect” value is reported as “excellent uricosuric effect was confirmed”. Besides, on human URAT1, the “Inhibitory Activity” value was “* *”.

`O=C(O)c1ccc(-c2cccnc2)n1Cc1cc(Cl)ccc1Cl` [Compound B11, 1-(2,5-dichlorobenzyl)-2-(pyridin-3-yl)-1H-pyrrole-5-carboxylic acid]: the “uricosuric effect” value with Cebus apella is recorded as “excellent uricosuric effect was confirmed”. Moreover, at human URAT1, the “Inhibitory Activity” value was “* * *”.

As to `CCc1nc(-c2cccnc2)n(Cc2cc(Cl)ccc2Cl)c1C(=O)O` [Compound A14, 1-(2,5-dichlorobenzyl)-4-ethyl-2-(pyridin-3-yl)-1H-imidazole-5-carboxylic acid], the “uricosuric effect” value in the experiment with Cebus apella was “excellent uricosuric effect was confirmed”. The “Inhibitory Activity” value at human URAT1 is recorded as “* * *”.

Consider `Cc1nc(-c2cccnc2)n(Cc2cc(Cl)ccc2Cl)c1C(=O)O` [Compound A13, 1-(2,5-dichlorobenzyl)-2-(pyridin-3-yl)-4-methyl-1H-imidazole-5-carboxylic acid], for which the “uricosuric effect” value with Cebus apella is given as “excellent uricosuric effect was confirmed”. Also, the “Inhibitory Activity” value at human URAT1 was “* * *”.

In the case of `Cc1nc(-c2cncc(F)c2)n(Cc2cccc3ccccc23)c1C(=O)O` [Compound A119, 2-(5-fluoropyridin-3-yl)-4-methyl-1-(naphthalen-1-ylmethyl)-1H-imidazole-5-carboxylic acid], the “uricosuric effect” value in the experiment on Cebus apella is on record as “excellent uricosuric effect was confirmed”. In addition, the “Inhibitory Activity” value on human URAT1 is “* *”.

As for `Cc1nc(-c2cncc(F)c2)n(Cc2cc(Cl)ccc2Cl)c1C(=O)O` [Compound A134, 1-(2,5-dichlorobenzyl)-2-(5-fluoropyridin-3-yl)-4-methyl-1H-imidazole-5-carboxylic acid], the “uricosuric effect” value in the experiment on Cebus apella is “excellent uricosuric effect was confirmed”. In addition, the “Inhibitory Activity” value on human URAT1 was “* * *”.

Regarding `Cc1cncc(-c2nc(C)c(C(=O)O)n2Cc2cc(Cl)ccc2Cl)c1` [Compound A156, 1-(2,5-dichlorobenzyl)-4-methyl-2-(5-methylpyridin-3-yl)-1H-imidazole-5-carboxylic acid], the “uricosuric effect” value in the experiment with Cebus apella is listed as “excellent uricosuric effect was confirmed”. Also, the “Inhibitory Activity” value on human URAT1 was “* * *”.

As to `O=C(O)c1c(C(F)(F)F)nc(-c2cccnc2)n1Cc1cc(Cl)ccc1Cl` [Compound A19, 1-(2,5-dichlorobenzyl)-2-(pyridin-3-yl)-4-(trifluoromethyl)-1H-imidazole-5-carboxylic acid], the “uricosuric effect” value in the experiment on Cebus apella is “excellent uricosuric effect was confirmed”. On human URAT1, the “Inhibitory Activity” value is on record as “* * *”.

For the compound `Cc1ccc(C)c(Cn2c(-c3cccnc3)nc(C)c2C(=O)O)c1` [Compound A1, 1-(2,5-dimehylbenzyl)-4-methyl-2-(pyridin-3-yl)-1H-imidazole-5-carboxylic acid], in the experiment with Cebus apella, the “uricosuric effect” value is recorded as “excellent uricosuric effect was confirmed”. For the same compound, the “Inhibitory Activity” value on human URAT1 is recorded as “* *”.

On to `Cc1nc(-c2cccnc2)n(Cc2csc3cccc(Cl)c23)c1C(=O)O` [Compound A7, 1-((4-chlorobenzo[b]thiophen-3-yl)methyl)-4-methyl-2-(pyridin-3-yl)-1H-imidazole-5-carboxylic acid], for which the “uricosuric effect” value in the experiment on Cebus apella is “excellent uricosuric effect was confirmed”. Also, on human URAT1, the “Inhibitory Activity” value is “* *”.

For `O=C(O)c1c(C2CC2)nc(-c2cccnc2)n1Cc1cc(Cl)ccc1Cl` [Compound A15, 4-cyclopropyl-1-(2,5-dichlorobenzyl)-2-(pyridin-3-yl)-1H-imidazole-5-carboxylic acid], the “uricosuric effect” value in the experiment on Cebus apella is reported as “excellent uricosuric effect was confirmed”. Further, the “Inhibitory Activity” value on human URAT1 is on record as “* * *”.
